Here are results for two compounds from paper PMC5458211, “Mitochondrial VDAC1-based peptides: Attacking oncogenic properties in glioblastoma” (Oncotarget, 2017).

In one assay the test system is U-87MG cells. As to the kind of experiment: Morphological analysis of apoptosis by electron microscopy. The class given is cell-based, human. The following applies: 6 h, serum-free medium, Suppl Fig 2C. The protocol:
Supplementary Figure 2: Mode of action of VDAC1-based peptides. […]
detachment. SH-SY5Y cells (4×10^4/ml) were grown on cover slips, transfected with plasmid pEGFP-HK-I and after 24 h, were incubated […]
The final DMSO concentration in control and peptide-treated cells was 0.07%. Fixed cells were stained with DAPI and visualized by confocal microscopy (Olympus 1X81). Arrows indicate cells […]
showing diffusion of HK-I-GFP. B-C. […] B. SH-SY5Y cells were treated with the indicated […]
Arrows and arrowheads indicate cells with membrane blebbing (early apoptotic state) and late apoptotic states, respectively. C. Morphological analysis of apoptosis by electron microscopy (EM). For transmission EM, U-87MG cells (1.6 x10^6 /ml) were incubated with the indicated concentrations of D-ΔN-Ter-Antp peptide or DMSO (0.3% final concentration) for 6 h in serum-free medium. Cells were pelleted and fixed in Karnovsky’s fixative (2% paraformaldehyde, 2.5% glutaraldehyde in 0.1 M cacodylate buffer, pH 7.4) for 10 minutes at room temperature and then in fresh fixative for 3.5 days in the cold. Following buffer rinses, the cells were incubated with 1% osmium tetroxide in 0.1 M cacodylate buffer, dehydrated in an ethanol series, incubated with epoxy propane and embedded in Araldite resin. […]

The test system of assay [1] is U-87MG intracranial xenograft tumors. The assay is described as follows: U-87MG intracranial-orthotopic xenograft, tumor volume by MRI. The class given is in vivo, human U-87MG in nude mice. The protocol:
B. U-87MG cells (2×10^5) were incubated for 12 h with the indicated concentrations of DMSO, Retro-Tf-D-LP4 peptide (Pep), or Retro-Tf-D-LP4 encapsulated in PLGA nanoparticles (PLGA-Pep). Samples of Retro-Tf-D-LP4 encapsulated in PLGA nanoparticles were centrifuged (15000g, 5 min) to separate the supernatant (Sup), containing free peptide, and the pellet, containing encapsulated Retro-Tf-D-LP4 peptide. Cell death was analyzed by PI staining and FACS analysis. C. Graphical representation of the orthotopic animal experiment. D. MRI imaging of brains 29 days post-intravenal treatment start with DMSO (1.05%), Retro-Tf-D-LP4 (10 mg/kg) encapsulated in PLGA nanoparticles or Tf-D-Retro-LP4 peptide (10 mg/Kg), as described in Materials and Methods available online in Supplemental information. E. Calculated tumor volumes after 20 (dark grey bars) and 29 (light grey bars) days post-treatment start. Results = mean ± SE (n = 6) (* p<0.05, *** p<0.001). F. Kaplan-Meier survival curves showing statistically significant differences in survival curves between the PBS/DMSO and Retro-Tf-D-LP4 treated mice. Cumulative Kaplan-Meier survival curves of control mice (red line), Retro-Tf-D-LP4 peptide (10mg/kg) encapsulated in PGLA nanoparticles (black line, ** p=0.006) or Retro-Tf-D-LP4 peptide (10 mg/kg, pink line, *** p=0.0003). The arrow indicates the end of the peptide treatment (day 46).
For the intracranial-orthotopic xenograft mouse model, U-87MG cells (8×10^4) were engrafted into a nude mouse brain using a stereotactic device. Forty eight hours after surgery, mice were randomized into three groups (6 animals/group) and treated every third day with DMSO (1.44%), Retro-Tf-D-LP4 (10mg/Kg) or Retro-Tf-D-LP4 (10mg/Kg) encapsulated by PLGA. Mice were subjected to MRI, sacrificed; brains were excised and processed for IHC. Tumor volume was analyzed using VivoQuant 2.10 software.
PLGA encapsulation of the VDAC1-based minutes using an UltraMicroPump III (World Precision peptide Retro-Tf-D-LP4 Instruments, Sarasota, FL). After infusion, the needle was left in place for 1 minute before slow withdrawal. The burr […]
100% DMSO and then diluted 20-fold with sterile DDW into three groups (6 animals/group) and treated every to reach a concentration of 25 mg/ml in a final DMSO third day with DMSO (1.44%), Retro-Tf-D-LP4 (10 concentration of 5%. PLGA (50 mg) was dissolved in mg/kg) or Retro-Tf-D-LP4 (10 mg/kg) encapsulated by acetone (1 ml). […] Tumor volume was analyzed using VivoQuant 2.10 10 ml of aqueous solution containing 1% PVA (w/v). […]
of the experiments, the mice were sacrificed, tumors were IHC of tumor tissue sections excised and ex vivo weight was determined. […]
A general note: A xenograft is tissue or cells of one species grown in another, often human tumour cells in immunodeficient mice.

Each structure is given as a SMILES string. Non-standard residues stand in square brackets, D forms with d. Residues, ends and D or L forms follow the SMILES beside them.

With `CC[C@@H](C)[C@@H](NC(=O)[C@@H](CCCCN)NC(=O)[C@H](NC(=O)[C@@H](CCC(N)=O)NC(=O)[C@@H](CCCNC(=N)N)NC(=O)[C@@H](CC(C)C)NC(=O)CNC(=O)[C@@H](Cc1ccccc1)NC(=O)CNC(=O)[C@@H](Cc1ccc(O)cc1)NC(=O)CNC(=O)[C@@H](CCCCN)NC(=O)[C@H](NC(=O)[C@@H](Cc1ccccc1)NC(=O)[C@H](NC(=O)[C@@H](CC(=O)O)NC(=O)[C@H](N)CCCNC(=N)N)C(C)C)[C@H](C)O)[C@H](C)CC)C(=O)N[C@H](Cc1c[nH]c2ccccc12)C(=O)N[C@H](Cc1ccccc1)C(=O)N[C@H](CCC(N)=O)C(=O)N[C@H](CC(N)=O)C(=O)N[C@H](CCCNC(=N)N)C(=O)N[C@H](CCCNC(=N)N)C(=O)N[C@H](CCSC)C(=O)N[C@H](CCCCN)C(=O)N[C@H](Cc1c[nH]c2ccccc12)C(=O)N[C@H](CCCCN)C(=O)N[C@H](CCCCN)C(=O)O` [D-ΔN-Ter-Antp] (H-[dR][dD][dV][dF][dT][dK]G[dY]G[dF]G[dL][dR][dQ][dI][dK][dI][dW][dF][dQ][dN][dR][dR][dM][dK][dW][dK][dK]-OH; N-terminus and C-terminus assumed), the “apoptotic morphological changes (electron microscopy)” value in the assay with U-87MG cells was “condensation of nuclei, DNA fragmentation, and possible apoptotic body formation”.

For `CC[C@H](C)[C@H](NC(=O)[C@H](Cc1ccc(O)cc1)NC(=O)[C@@H]1CCCN1C(=O)[C@H](CCCNC(=N)N)NC(=O)[C@H](Cc1c[nH]cn1)NC(=O)[C@H](CO)NC(=O)[C@H](Cc1c[nH]c2ccccc12)NC(=O)[C@@H](NC(=O)[C@H](Cc1c[nH]c2ccccc12)NC(=O)[C@H](CCC(=O)O)NC(=O)[C@@H](CCCCN)NC(=O)[C@@H](CCCCN)NC(=O)[C@@H](CC(C)C)NC(=O)[C@@H](CCC(=O)O)NC(=O)[C@H](NC(=O)[C@@H](C)NC(=O)[C@H](NC(=O)[C@@H](CC(N)=O)NC(=O)[C@@H](CC(C)C)NC(=O)[C@@H](C)NC(=O)[C@@H](Cc1c[nH]c2ccccc12)NC(=O)[C@H](NC(=O)[C@@H](C)NC(=O)CNC(=O)[C@@H](CC(N)=O)NC(=O)[C@@H](CO)NC(=O)[C@@H](CC(N)=O)NC(=O)[C@H](CCCCN)NC(=O)[C@H](Cc1c[nH]c2ccccc12)NC(=O)[C@@H](NC(=O)[C@H](Cc1c[nH]c2ccccc12)NC(=O)[C@@H](N)CCCCN)[C@@H](C)O)[C@H](C)O)C(C)C)[C@H](C)O)[C@@H](C)O)C(=O)N[C@@H](C)C(=O)N[C@@H](Cc1c[nH]cn1)C(=O)O` [Retro-Tf-D-LP4], the “decrease in orthotopic xenograft tumor volume, day 20” value in assay [1] (10 mg/kg i.v., every third day, 20 days after start of treatment, MRI, n = 6) was determined as 60%. Besides, the “decrease in orthotopic xenograft tumor volume, day 29” value in assay [1] (10 mg/kg i.v., every third day, 29 days after start of treatment, MRI, n = 6) is given as 90%. Moreover, the “free vs PLGA-encapsulated peptide, effectiveness” value in assay [1] (intracranial model, tumor size and survival) is “more effective both in reducing tumor size and in prolonging mice survival”. Moreover, in assay [1] (intracranial-orthotopic xenograft, i.v., free peptide), the “reduction of tumor volume, maximum (Discussion)” value is given as “up to 90%”.
